{"source": "patent US5674979A", "about": "“Agent for inhibiting symmetrical proteins, in particular enzymes” (priority 1989, dated 1997)", "key": {"[1]": {"system": "HIV-1", "method": "Infectivity tests were carried out as follows: an HIV-1 suspension containing 10^2 infectious units was absorbed on to 5×10^6 H9 cells in a volume of 1 ml for 2 hours at 4° C. After this time, 9 ml of tissue culture medium with the required inhibitor concentration was added. The medium was exchanged with fresh medium plus inhibitor daily. Two control cultures were also prepared, one without inhibitor to determine the normal virus replication rate, the other containing inhibitor but no virus, to determine whether the substances were cytotoxic for H9 cells. […] The amount of virus antigen produced by the infected cells was measured daily using Elisa for eight days, indicating the amount of HIV-1 antigen in the tissue culture medium. After this, the cells were pelleted, washed in medium without inhibitor, and further incubated in inhibitor-less medium. The antigen production was measured on days 9 and 12 (ie 1 and 3 days after removal of the inhibitor). Virus production was also measured on days 7, 8, 9, and 12 by determining the amount of reverse transcriptase in the supernatant of the cell medium."}, "[2]": {"system": "HIV-1", "settings": "H9 cells", "protocol": "Compounds (a), (b), (c), (d) were tested in the molarity range from 0.1 μM to 1000 μM. Infectivity tests were carried out as follows: an HIV-1 suspension containing 10^2 infectious units was absorbed on to 5×10^6 H9 cells in a volume of 1 ml for 2 hours at 4° C. After this time, 9 ml of tissue culture medium with the required inhibitor concentration was added. The medium was exchanged with fresh medium plus inhibitor daily. Two control cultures were also prepared, one without inhibitor to determine the normal virus replication rate, the other containing inhibitor but no virus, to determine whether the substances were cytotoxic for H9 cells. […] The amount of virus antigen produced by the infected cells was measured daily using Elisa for eight days, indicating the amount of HIV-1 antigen in the tissue culture medium. After this, the cells were pelleted, washed in medium without inhibitor, and further incubated in inhibitor-less medium. The antigen production was measured on days 9 and 12 (ie 1 and […] after removal of the inhibitor). Virus production was also measured on days 7, 8, 9, and 12 by determining the amount of reverse transcriptase in the supernatant of the cell medium."}, "[3]": {"settings": "0,1 μM, day 9 post infection, no inhibitor (after removal)"}, "[4]": {"settings": "0,1 μM, day 12 post infection, no inhibitor (after removal)"}, "[5]": {"settings": "1 μM, day 9 post infection, no inhibitor (after removal)"}, "[6]": {"settings": "1 μM, day 12 post infection, no inhibitor (after removal)"}, "[7]": {"settings": "10 μM, day 9 post infection, no inhibitor (after removal)"}, "[8]": {"settings": "10 μM, day 12 post infection, no inhibitor (after removal)"}, "[9]": {"settings": "100 μM, day 9 post infection, no inhibitor (after removal)"}, "[10]": {"settings": "100 μM, day 12 post infection, no inhibitor (after removal)"}, "[11]": {"settings": "1000 μM, day 9 post infection, no inhibitor (after removal)"}, "[12]": {"settings": "1000 μM, day 12 post infection, no inhibitor (after removal)"}}, "note": "Read-outs that look alike come from different tables or passages of the source. Non-standard residues stand in square brackets, D forms with d. Residues, ends and D or L forms follow the SMILES beside them."}
{"smiles": "CC(C)C[C@@H](NC(=O)[C@H](N)CC(N)=O)C(=O)N[C@@H](C(=O)NCC(=O)O)[C@H](C)O", "note": "[A, H-(D)-Asn-(D)-Leu-(D)-Thr-Gly-OH] (H-[dN][dL][dT]G-OH)", "values": [{"measurement": "Reverse Transkriptase Determination", "setting": "[1]; 0,1 μM, day 7 post infection", "result": 3929, "unit": "epm/ml"}, {"measurement": "Reverse Transkriptase Determination", "setting": "[1]; 0,1 μM, day 8 post infection", "result": 6914, "unit": "epm/ml"}, {"measurement": "Reverse Transkriptase Determination", "setting": "[1]; [3]", "result": 14455, "unit": "epm/ml"}, {"measurement": "Reverse Transkriptase Determination", "setting": "[1]; [4]", "result": 137470, "unit": "epm/ml"}, {"measurement": "Reverse Transkriptase Determination", "setting": "[1]; 1 μM, day 7 post infection", "result": 4041, "unit": "epm/ml"}, {"measurement": "Reverse Transkriptase Determination", "setting": "[1]; 1 μM, day 8 post infection", "result": 7460, "unit": "epm/ml"}, {"measurement": "Reverse Transkriptase Determination", "setting": "[1]; [5]", "result": 9502, "unit": "epm/ml"}, {"measurement": "Reverse Transkriptase Determination", "setting": "[1]; [6]", "result": 163130, "unit": "epm/ml"}, {"measurement": "Reverse Transkriptase Determination", "setting": "[1]; 10 μM, day 7 post infection", "result": 4615, "unit": "epm/ml"}, {"measurement": "Reverse Transkriptase Determination", "setting": "[1]; 10 μM, day 8 post infection", "result": 5381, "unit": "epm/ml"}, {"measurement": "Reverse Transkriptase Determination", "setting": "[1]; [7]", "result": 12517, "unit": "epm/ml"}, {"measurement": "Reverse Transkriptase Determination", "setting": "[1]; [8]", "result": 117910, "unit": "epm/ml"}, {"measurement": "Reverse Transkriptase Determination", "setting": "[1]; 100 μM, day 7 post infection", "result": 5378, "unit": "epm/ml"}, {"measurement": "Reverse Transkriptase Determination", "setting": "[1]; 100 μM, day 8 post infection", "result": 6407, "unit": "epm/ml"}, {"measurement": "Reverse Transkriptase Determination", "setting": "[1]; [9]", "result": 12893, "unit": "epm/ml"}, {"measurement": "Reverse Transkriptase Determination", "setting": "[1]; [10]", "result": 142240, "unit": "epm/ml"}, {"measurement": "Reverse Transkriptase Determination", "setting": "[1]; 1000 μM, day 7 post infection", "result": 1529, "unit": "epm/ml"}, {"measurement": "Reverse Transkriptase Determination", "setting": "[1]; 1000 μM, day 8 post infection", "result": 2121, "unit": "epm/ml"}, {"measurement": "Reverse Transkriptase Determination", "setting": "[1]; [11]", "result": 1550, "unit": "epm/ml"}, {"measurement": "Reverse Transkriptase Determination", "setting": "[1]; [12]", "result": 104660, "unit": "epm/ml"}, {"measurement": "HIV-1 antigen production as measured in antigen capture ELISA", "setting": "[2]; 0,1 μM, day 1 post infection", "result": "0,060 o. D."}, {"measurement": "HIV-1 antigen production as measured in antigen capture ELISA", "setting": "[2]; 0,1 μM, day 2 post infection", "result": "0,066 o. D."}, {"measurement": "HIV-1 antigen production as measured in antigen capture ELISA", "setting": "[2]; 0,1 μM, day 3 post infection", "result": "0,062 o. D."}, {"measurement": "HIV-1 antigen production as measured in antigen capture ELISA", "setting": "[2]; 0,1 μM, day 4 post infection", "result": "0,055 o. D."}, {"measurement": "HIV-1 antigen production as measured in antigen capture ELISA", "setting": "[2]; 0,1 μM, day 5 post infection", "result": "0,058 o. D."}, {"measurement": "HIV-1 antigen production as measured in antigen capture ELISA", "setting": "[2]; 0,1 μM, day 6 post infection", "result": "0,181 o. D."}, {"measurement": "HIV-1 antigen production as measured in antigen capture ELISA", "setting": "[2]; 0,1 μM, day 7 post infection", "result": "0,363 o. D."}, {"measurement": "HIV-1 antigen production as measured in antigen capture ELISA", "setting": "[2]; 0,1 μM, day 8 post infection", "result": "0,478 o. D."}, {"measurement": "HIV-1 antigen production as measured in antigen capture ELISA", "setting": "[2]; [3]", "result": "0,737 o. D."}, {"measurement": "HIV-1 antigen production as measured in antigen capture ELISA", "setting": "[2]; [4]", "result": "1,037 o. D."}, {"measurement": "HIV-1 antigen production as measured in antigen capture ELISA", "setting": "[2]; 1 μM, day 1 post infection", "result": "0,064 o. D."}, {"measurement": "HIV-1 antigen production as measured in antigen capture ELISA", "setting": "[2]; 1 μM, day 2 post infection", "result": "0,060 o. D."}, {"measurement": "HIV-1 antigen production as measured in antigen capture ELISA", "setting": "[2]; 1 μM, day 3 post infection", "result": "0,075 o. D."}, {"measurement": "HIV-1 antigen production as measured in antigen capture ELISA", "setting": "[2]; 1 μM, day 4 post infection", "result": "0,057 o. D."}, {"measurement": "HIV-1 antigen production as measured in antigen capture ELISA", "setting": "[2]; 1 μM, day 5 post infection", "result": "0,053 o. D."}, {"measurement": "HIV-1 antigen production as measured in antigen capture ELISA", "setting": "[2]; 1 μM, day 6 post infection", "result": "0,136 o. D."}, {"measurement": "HIV-1 antigen production as measured in antigen capture ELISA", "setting": "[2]; 1 μM, day 7 post infection", "result": "0,213 o. D."}, {"measurement": "HIV-1 antigen production as measured in antigen capture ELISA", "setting": "[2]; 1 μM, day 8 post infection", "result": "0,394 o. D."}, {"measurement": "HIV-1 antigen production as measured in antigen capture ELISA", "setting": "[2]; [5]", "result": "0,694 o. D."}, {"measurement": "HIV-1 antigen production as measured in antigen capture ELISA", "setting": "[2]; [6]", "result": "1,065 o. D."}, {"measurement": "HIV-1 antigen production as measured in antigen capture ELISA", "setting": "[2]; 10 μM, day 1 post infection", "result": "0,061 o. D."}, {"measurement": "HIV-1 antigen production as measured in antigen capture ELISA", "setting": "[2]; 10 μM, day 2 post infection", "result": "0,075 o. D."}, {"measurement": "HIV-1 antigen production as measured in antigen capture ELISA", "setting": "[2]; 10 μM, day 3 post infection", "result": "0,069 o. D."}, {"measurement": "HIV-1 antigen production as measured in antigen capture ELISA", "setting": "[2]; 10 μM, day 4 post infection", "result": "0,044 o. D."}, {"measurement": "HIV-1 antigen production as measured in antigen capture ELISA", "setting": "[2]; 10 μM, day 5 post infection", "result": "0,064 o. D."}, {"measurement": "HIV-1 antigen production as measured in antigen capture ELISA", "setting": "[2]; 10 μM, day 6 post infection", "result": "0,140 o. D."}, {"measurement": "HIV-1 antigen production as measured in antigen capture ELISA", "setting": "[2]; 10 μM, day 7 post infection", "result": "0,256 o. D."}, {"measurement": "HIV-1 antigen production as measured in antigen capture ELISA", "setting": "[2]; 10 μM, day 8 post infection", "result": "0,499 o. D."}, {"measurement": "HIV-1 antigen production as measured in antigen capture ELISA", "setting": "[2]; [7]", "result": "0,727 o. D."}, {"measurement": "HIV-1 antigen production as measured in antigen capture ELISA", "setting": "[2]; [8]", "result": "1,003 o. D."}, {"measurement": "HIV-1 antigen production as measured in antigen capture ELISA", "setting": "[2]; 100 μM, day 1 post infection", "result": "0,068 o. D."}, {"measurement": "HIV-1 antigen production as measured in antigen capture ELISA", "setting": "[2]; 100 μM, day 2 post infection", "result": "0,064 o. D."}, {"measurement": "HIV-1 antigen production as measured in antigen capture ELISA", "setting": "[2]; 100 μM, day 3 post infection", "result": "0,065 o. D."}, {"measurement": "HIV-1 antigen production as measured in antigen capture ELISA", "setting": "[2]; 100 μM, day 4 post infection", "result": "0,053 o. D."}, {"measurement": "HIV-1 antigen production as measured in antigen capture ELISA", "setting": "[2]; 100 μM, day 5 post infection", "result": "0,057 o. D."}, {"measurement": "HIV-1 antigen production as measured in antigen capture ELISA", "setting": "[2]; 100 μM, day 6 post infection", "result": "0,070 o. D."}, {"measurement": "HIV-1 antigen production as measured in antigen capture ELISA", "setting": "[2]; 100 μM, day 7 post infection", "result": "0,361 o. D."}, {"measurement": "HIV-1 antigen production as measured in antigen capture ELISA", "setting": "[2]; 100 μM, day 8 post infection", "result": "0,374 o. D."}, {"measurement": "HIV-1 antigen production as measured in antigen capture ELISA", "setting": "[2]; [9]", "result": "0,915 o. D."}, {"measurement": "HIV-1 antigen production as measured in antigen capture ELISA", "setting": "[2]; [10]", "result": "1,013 o. D."}, {"measurement": "HIV-1 antigen production as measured in antigen capture ELISA", "setting": "[2]; 1000 μM, day 1 post infection", "result": "0,087 o. D."}, {"measurement": "HIV-1 antigen production as measured in antigen capture ELISA", "setting": "[2]; 1000 μM, day 2 post infection", "result": "0,058 o. D."}, {"measurement": "HIV-1 antigen production as measured in antigen capture ELISA", "setting": "[2]; 1000 μM, day 3 post infection", "result": "0,073 o. D."}, {"measurement": "HIV-1 antigen production as measured in antigen capture ELISA", "setting": "[2]; 1000 μM, day 4 post infection", "result": "0,054 o. D."}, {"measurement": "HIV-1 antigen production as measured in antigen capture ELISA", "setting": "[2]; 1000 μM, day 5 post infection", "result": "0,056 o. D."}, {"measurement": "HIV-1 antigen production as measured in antigen capture ELISA", "setting": "[2]; 1000 μM, day 6 post infection", "result": "0,102 o. D."}, {"measurement": "HIV-1 antigen production as measured in antigen capture ELISA", "setting": "[2]; 1000 μM, day 7 post infection", "result": "0,286 o. D."}, {"measurement": "HIV-1 antigen production as measured in antigen capture ELISA", "setting": "[2]; 1000 μM, day 8 post infection", "result": "0,597 o. D."}, {"measurement": "HIV-1 antigen production as measured in antigen capture ELISA", "setting": "[2]; [11]", "result": "0,899 o. D."}, {"measurement": "HIV-1 antigen production as measured in antigen capture ELISA", "setting": "[2]; [12]", "result": "1,054 o. D."}]}
